What all share (format): biochemical
One assay deals with Human Factor XIa (Homo sapiens (Human), UniProt P03951). Description: Factor XIa enzyme activity, chromogenic substrate S-2366. The note with it: purified human Factor XIa 0.1 U/mL, 300 μM S-2366, pH7.4; read-out: In vitro FXIa inhibitory activity IC50. The procedure: (§1) Inhibitory activities of compounds of the present invention against factor XIa, Xa, XIIa, IXa, VIIa, plasma kallikrein or thrombin were evaluated using appropriate purified proteases and synthetic substrates. The rate of hydrolysis of the chromogenic substrate by the relevant protease was continuously measured at 405 nm. Inhibitory activity against each enzyme was calculated as % inhibition using the equation described below. % Inhibition=[[(rate without compound)−(rate with compound)]/(rate without compound)]×100%. Each half maximal inhibitory concentration (IC50) value was determined by plotting the concentration of compound of the invention against the % inhibition. (1-1) Factor XIa Enzyme Activity
Human Factor XIa (Haematologic Technologies Inc.) activity was measured at an enzyme concentration of 0.1 U/mL in 150 mM NaCl, 5 mM KCl, 1 mg/mL PEG6000, 50 mM HEPES-NaOH (pH7.4) with 300 μM S-2366 (pyroGlu-Pro-Arg-pNA, Chromogenix).

In a further assay the target is human thrombin (Homo sapiens (Human), UniProt P00734). As to the kind of experiment: Thrombin enzyme activity, chromogenic substrate S-2366. Conditions: human thrombin 0.12 U/mL, 300 μM S-2366, pH7.4; read-out: In vitro Thrombin inhibitory activity IC50. The procedure: as §1
(§2) Human Factor Xa (American Diagnostica Inc.) and human thrombin (Sigma) activities were measured at the enzyme concentrations of 0.18 U/mL and 0.12 U/mL, respectively in the same buffer containing 150 mM NaCl, 2 mg/mL PEG6000, 50 mM Tris-HCl (pH7.4), except that the reactions were started with 300 μM S-2222 ([…], Chromogenix) and 300 μM S-2366, respectively.

A further assay addresses Human Factor Xa (Homo sapiens (Human), UniProt P00742). As to the kind of experiment: Factor Xa enzyme activity, chromogenic substrate S-2222. The note with it: human Factor Xa 0.18 U/mL, 300 μM S-2222, pH7.4; read-out: In vitro FXa inhibitory activity IC50. The procedure:
as §1, §2

Molecules are shown by their SMILES. Where only a bound is given, the exact number is not on record here.

Sequence of Human Factor XIa (P03951 388-625): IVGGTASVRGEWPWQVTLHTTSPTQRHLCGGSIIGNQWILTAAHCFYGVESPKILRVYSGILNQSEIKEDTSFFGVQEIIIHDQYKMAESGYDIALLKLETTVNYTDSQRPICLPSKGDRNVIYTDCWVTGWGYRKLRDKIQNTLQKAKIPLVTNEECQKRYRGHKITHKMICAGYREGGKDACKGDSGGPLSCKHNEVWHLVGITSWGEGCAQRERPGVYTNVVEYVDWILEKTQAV
Sequence of Human Factor XIa (P03951 19-387 partner): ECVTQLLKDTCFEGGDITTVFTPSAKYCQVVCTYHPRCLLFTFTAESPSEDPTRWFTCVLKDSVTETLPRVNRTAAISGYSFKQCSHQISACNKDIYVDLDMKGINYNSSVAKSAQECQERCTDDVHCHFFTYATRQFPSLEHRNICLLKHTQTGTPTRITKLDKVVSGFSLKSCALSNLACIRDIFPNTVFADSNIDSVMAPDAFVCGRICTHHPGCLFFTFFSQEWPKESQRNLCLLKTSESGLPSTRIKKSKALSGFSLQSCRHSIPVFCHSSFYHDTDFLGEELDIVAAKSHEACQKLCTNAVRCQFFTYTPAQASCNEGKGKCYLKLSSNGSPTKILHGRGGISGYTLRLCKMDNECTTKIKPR
Sequence of Human Factor Xa (P00742 235-488): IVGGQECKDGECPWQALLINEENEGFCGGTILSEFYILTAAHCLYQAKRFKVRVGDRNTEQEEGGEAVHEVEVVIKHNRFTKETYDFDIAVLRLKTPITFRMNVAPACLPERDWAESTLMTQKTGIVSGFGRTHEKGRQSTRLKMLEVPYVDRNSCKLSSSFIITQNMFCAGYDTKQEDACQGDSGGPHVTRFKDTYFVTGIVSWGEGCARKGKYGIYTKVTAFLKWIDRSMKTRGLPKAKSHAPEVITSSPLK
Sequence of Human Factor Xa (P00742 41-179 partner): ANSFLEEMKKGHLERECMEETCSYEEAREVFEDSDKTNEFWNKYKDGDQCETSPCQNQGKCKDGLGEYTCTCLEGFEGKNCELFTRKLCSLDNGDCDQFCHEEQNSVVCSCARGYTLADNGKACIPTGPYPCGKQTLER

As a reminder, the IC50 is the concentration that gives 50% inhibition. As to `CS(=O)(=O)N1CCN([C@H]2C[C@@H](C(=O)Nc3ccc(C(=O)O)cc3)N(C(=O)c3ccc(C(=N)N)cc3)C2)CC1` [Example 20, 4-[({(2S,4S)-1-(4-carbamimidoylbenzoyl)-4-[4-(methylsulfonyl)-1-piperazinyl]-2-pyrrolidinyl}carbonyl)amino]benzoic acid bis(trifluoroacetate)], the IC50 on Human Factor XIa is 0.0032 µM; on human thrombin it was over 100 µM; on Human Factor Xa, over 100 µM.
With `COC(=O)Nc1ccc(-c2[nH]c([C@@H]3C[C@H](C4CCN(S(C)(=O)=O)CC4)CN3C(=O)/C=C/c3cc(Cl)ccc3-n3cnnn3)nc2Cl)cc1` [Example 94, methyl [4-(4-chloro-2-{(2S,4R)-1-{(2E)-3-[5-chloro-2-(1H-tetraol-1-yl)phenyl]-2-propenoyl}-4-[1-(methylsulfonyl)-4-piperidinyl]-2-pyrrolidinyl}-1H-imidazol-5-yl)phenyl]carbamate], the IC50 on Human Factor XIa was 0.0054 µM; on human thrombin, over 33 µM; at Human Factor Xa it was over 33 µM.

The values above are taken from patent US9394250B2, “Substituted pyrrolidines as factor xia inhibitors for the treatment thromboembolic diseases” (ONO PHARMACEUTICAL CO., LTD., priority 2012, dated 2016).
